Assay results: US4267180A, “Novel antibacterial amide compounds and process means for producing the same” (Warner-Lambert Company, priority 1980, dated 1981)

Columns and labels:
Assay in all cases: Minimal Inhibitory Concentration, in vitro
Type in all cases: cell-based
Design in all cases: unit not given here
Proteus Vulgaris 1810 = tested on: Proteus Vulgaris 1810
Excerpt: (§1) The compounds of the invention are new chemical compounds that are useful as pharmacological agents and especially as broad spectrum antibacterial agents. They are active in vitro against strains of both gram-positive and gram-negative bacteria.
(§2) Minimal Inhibitory Concentration

[1] = tested on: Enterobacter Cloacae IMM-11
Excerpt: as §1, §2

[2] = tested on: Pseudomonas Aeruginosa #28
Excerpt: as §1, §2

[3] = tested on: Pseudomonas Aeruginosa UI-18
Excerpt: as §1, §2

[4] = tested on: Klebsiella Pneumoniae MGH-2
Excerpt: as §1, §2

Staph Aureus UC-76 = tested on: Staph Aureus UC-76
Excerpt: as §1, §2

[5] = tested on: Serratia Marcescens IMM-16
Excerpt: as §1, §2

CC(=O)NCCC(=O)Nc1ccc(-c2ncc(C(=O)N[C@@H](C(=O)N[C@@H]3C(=O)N4[C@@H]3SC(C)(C)[C@@H]4C(=O)O)c3ccc(O)cc3)c(O)n2)cc1 [N-Acetyl-beta-Alanyl, N-[2-[4-(N-Acetyl-beta-alanylamino)phenyl]-4-hydroxy-5-pyrimidinylcarbonyl]amoxicillin]
Minimal Inhibitory Concentration (Proteus Vulgaris 1810): 0.8 | Minimal Inhibitory Concentration [1]: 6.3 | Minimal Inhibitory Concentration [2]: 0.8 | Minimal Inhibitory Concentration [3]: 0.8 | Minimal Inhibitory Concentration [4]: 25 | Minimal Inhibitory Concentration (Staph Aureus UC-76): 0.4 | Minimal Inhibitory Concentration [5]: 6.3

CC(=O)NC(C)(C)C(=O)Nc1ccc(-c2ncc(C(=O)N[C@@H](C(=O)N[C@@H]3C(=O)N4[C@@H]3SC(C)(C)[C@@H]4C(=O)O)c3ccc(O)cc3)c(O)n2)cc1 [N-Acetylamino Isobutyryl, N-[2-[4-(alpha-Acetamidoisobutyrylamino)phenyl]-4-hydroxy-5-pyrimidinylcarbonyl]amoxicillin]
Minimal Inhibitory Concentration (Proteus Vulgaris 1810): 0.4 | Minimal Inhibitory Concentration [1]: 6.3 | Minimal Inhibitory Concentration [2]: 0.8 | Minimal Inhibitory Concentration [3]: 0.8 | Minimal Inhibitory Concentration [4]: > 50 | Minimal Inhibitory Concentration (Staph Aureus UC-76): 1.6 | Minimal Inhibitory Concentration [5]: 12.5

CC1(C)S[C@@H]2[C@H](NC(=O)[C@H](NC(=O)c3cnc(-c4ccc(NC(=O)CNC(N)=O)cc4)nc3O)c3ccc(O)cc3)C(=O)N2[C@H]1C(=O)O [N-Carbamoyl Glycyl, N-[2-[4-(N-Carbamoylglycylamino)phenyl]-4-hydroxy-5-pyrimidinylcarbonyl]amoxicillin]
Minimal Inhibitory Concentration (Proteus Vulgaris 1810): 3.1 | Minimal Inhibitory Concentration [1]: 25 | Minimal Inhibitory Concentration [2]: 0.8 | Minimal Inhibitory Concentration [3]: 1.6 | Minimal Inhibitory Concentration [4]: 50 | Minimal Inhibitory Concentration (Staph Aureus UC-76): 0.8 | Minimal Inhibitory Concentration [5]: 25

CCC(=O)N[C@@H](C)C(=O)Nc1ccc(-c2ncc(C(=O)N[C@@H](C(=O)N[C@@H]3C(=O)N4[C@@H]3SC(C)(C)[C@@H]4C(=O)O)c3ccc(O)cc3)c(O)n2)cc1 [N-Propionyl-L-Alanyl, N-[2-[4-(N-Propionyl-L-alanylamino)phenyl]-4-hydroxy-5-pyrimidinylcarbonyl]amoxicillin]
Minimal Inhibitory Concentration (Proteus Vulgaris 1810): 3.1 | Minimal Inhibitory Concentration [1]: 3.1 | Minimal Inhibitory Concentration [2]: 1.6 | Minimal Inhibitory Concentration [3]: 0.8 | Minimal Inhibitory Concentration [4]: 50 | Minimal Inhibitory Concentration (Staph Aureus UC-76): 0.8 | Minimal Inhibitory Concentration [5]: 12.5

N-[2-[4-(N-Acetyl-DL-glutaminylamino)phenyl]-4-hydroxy-5-pyrimidinylcarbonyl]amoxicillin [N-Acetyl-L-Glutaminyl]
Minimal Inhibitory Concentration (Proteus Vulgaris 1810): 0.8 | Minimal Inhibitory Concentration [1]: 12.5 | Minimal Inhibitory Concentration [2]: 3.1 | Minimal Inhibitory Concentration [3]: 3.1 | Minimal Inhibitory Concentration [4]: > 50 | Minimal Inhibitory Concentration (Staph Aureus UC-76): 3.1 | Minimal Inhibitory Concentration [5]: 25
